Several values for one entry are separate records, joined by “and”; a condition that tells them apart may be missing. Equal entries are not always repeated.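 Test compounds were applied to cells in 96-well plates for 48 hours at 5 doses. Abbreviation: GI50, concentration required for 50% inhibition of growth. TGI marks complete inhibition of growth.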
How the values were obtained:
Assay in all cases: NCI tumour cell line growth inhibition, 48 h
A549 NSCLC = tested on: A549 NSCLC
U251 CNS = tested on: U251 CNS
RPMI-8226 leukemia = tested on: RPMI-8226 leukemia
K-562 leukemia = tested on: K-562 leukemia
SK-MEL-5 melanoma = tested on: SK-MEL-5 melanoma
OVCAR-4 ovarian = tested on: OVCAR-4 ovarian
IGROV1 ovarian = tested on: IGROV1 ovarian
SN12C renal = tested on: SN12C renal
HOP-92 NSCLC = tested on: HOP-92 NSCLC
MDA-MB-231 breast = tested on: MDA-MB-231 breast

Cc1cc(C)cc(NC(=O)CCC(=O)C2CCC/C2=N\NC(=O)C(=O)NN)c1 (stereo not drawn)
TGI (A549 NSCLC): > 100 µM | TGI (U251 CNS): > 100 µM | TGI (RPMI-8226 leukemia): > 100 µM | TGI (K-562 leukemia): > 100 µM | TGI (SK-MEL-5 melanoma): > 100 µM | TGI (OVCAR-4 ovarian): > 100 µM | TGI (IGROV1 ovarian): > 100 µM | TGI (SN12C renal): > 100 µM

COc1cc(C=C2C(=O)OC(C)(C)OC2=O)cc(OC)c1OC
TGI (HOP-92 NSCLC): > 100 µM | TGI (A549 NSCLC): > 100 µM | TGI (U251 CNS): > 100 µM | TGI (RPMI-8226 leukemia): > 100 µM | TGI (K-562 leukemia): > 100 µM | TGI (SK-MEL-5 melanoma): > 100 µM | TGI (OVCAR-4 ovarian): > 100 µM | TGI (SN12C renal): > 100 µM

Cn1c(=O)c(C2c3ccccc3Oc3c2c(=O)n(C)c2ccccc32)c(O)c2ccccc21 (stereo not drawn)
TGI (HOP-92 NSCLC): > 100 µM | TGI (A549 NSCLC): > 100 µM | TGI (U251 CNS): > 100 µM | TGI (RPMI-8226 leukemia): > 100 µM | TGI (K-562 leukemia): > 100 µM | TGI (SK-MEL-5 melanoma): > 100 µM | TGI (OVCAR-4 ovarian): > 100 µM | TGI (IGROV1 ovarian): > 100 µM | TGI (SN12C renal): > 100 µM

COc1cc(OC)c(Oc2cccc(OC)c2OC)c(OC)c1
TGI (HOP-92 NSCLC): > 100 µM | TGI (A549 NSCLC): > 100 µM | TGI (U251 CNS): > 100 µM | TGI (K-562 leukemia): > 100 µM | TGI (SK-MEL-5 melanoma): > 100 µM | TGI (OVCAR-4 ovarian): > 100 µM | TGI (IGROV1 ovarian): > 100 µM | TGI (SN12C renal): > 100 µM

COC(=O)CC[C@@H](NC(=O)C(C)NC(=O)COC1C(O)C(COC(=O)CCCCCCCCCCNC(=O)c2ccc([N+](=O)[O-])c3[nH]c4cc(Br)ccc4c(=O)c23)OC(OCc2ccccc2)C1NC(C)=O)C(N)=O (stereo partly drawn)
TGI (HOP-92 NSCLC): > 100 µM | TGI (A549 NSCLC): > 100 µM | TGI (U251 CNS): > 100 µM | TGI (RPMI-8226 leukemia): > 100 µM | TGI (K-562 leukemia): > 100 µM | TGI (SK-MEL-5 melanoma): > 100 µM | TGI (OVCAR-4 ovarian): > 100 µM | TGI (IGROV1 ovarian): 49.8 µM | TGI (SN12C renal): > 100 µM

c1cc(C2O[C@H]3CCCN3[C@@H]2c2ccncc2)ccn1 (stereo partly drawn)
TGI (A549 NSCLC): > 100 µM | TGI (U251 CNS): > 100 µM | TGI (RPMI-8226 leukemia): > 100 µM | TGI (K-562 leukemia): > 100 µM | TGI (SK-MEL-5 melanoma): > 100 µM | TGI (OVCAR-4 ovarian): > 100 µM | TGI (IGROV1 ovarian): > 100 µM | TGI (SN12C renal): > 100 µM

O=C(O)C(=O)/C=C\c1ccc(Cl)cc1
TGI (HOP-92 NSCLC): > 100 µM | TGI (A549 NSCLC): > 100 µM | TGI (U251 CNS): > 100 µM | TGI (RPMI-8226 leukemia): > 100 µM | TGI (K-562 leukemia): > 100 µM | TGI (SK-MEL-5 melanoma): > 100 µM | TGI (OVCAR-4 ovarian): > 100 µM | TGI (IGROV1 ovarian): > 100 µM | TGI (SN12C renal): > 100 µM

CCCCc1c2c(nc3c1CCc1cc(C=O)c(N)nc1-3)/C(=C/c1ccccc1)CCC2
TGI (HOP-92 NSCLC): > 100 µM | TGI (A549 NSCLC): 61.5 µM | TGI (U251 CNS): > 100 µM | TGI (RPMI-8226 leukemia): > 100 µM | TGI (K-562 leukemia): > 100 µM | TGI (SK-MEL-5 melanoma): > 100 µM | TGI (OVCAR-4 ovarian): > 100 µM | TGI (IGROV1 ovarian): > 100 µM | TGI (SN12C renal): > 100 µM

COc1cc2c3c(c1OC)C1(C=CC(=O)C=C1)CC3N(C(=O)OC(C)(C)C(Cl)(Cl)Cl)CC2 (stereo not drawn)
TGI (HOP-92 NSCLC): 29.8 µM | TGI (A549 NSCLC): 49.4 µM | TGI (U251 CNS): 22.4 µM | TGI (RPMI-8226 leukemia): 9.04 µM | TGI (K-562 leukemia): 50.2 µM | TGI (SK-MEL-5 melanoma): 20.7 µM | TGI (OVCAR-4 ovarian): 40.3 µM | TGI (IGROV1 ovarian): 41.9 µM | TGI (SN12C renal): 26.6 µM

CC(C)(C)NC(=O)C12C3C4C1C1C2C3C41I (stereo not drawn)
TGI (HOP-92 NSCLC): > 100 µM | TGI (A549 NSCLC): > 100 µM | TGI (U251 CNS): > 100 µM | TGI (RPMI-8226 leukemia): > 100 µM | TGI (K-562 leukemia): > 100 µM | TGI (SN12C renal): > 100 µM

Nc1ncnc2c1ncn2C1OC(CO)C(O)C1O (stereo not drawn)
GI50 (A549 NSCLC): 22.3 µM | TGI (A549 NSCLC): > 388 µM | GI50 (U251 CNS): > 100 µM and 273 µM and 30.6 µM | TGI (U251 CNS): > 450 µM | GI50 (MDA-MB-231 breast): 5.91 µM | TGI (MDA-MB-231 breast): > 100 µM and 24.6 µM | TGI (RPMI-8226 leukemia): > 100 µM and > 450 µM and 60.8 µM | TGI (K-562 leukemia): > 450 µM | GI50 (SK-MEL-5 melanoma): > 100 µM and > 450 µM and 46.2 µM | TGI (SK-MEL-5 melanoma): > 450 µM | TGI (OVCAR-4 ovarian): > 450 µM | GI50 (IGROV1 ovarian): > 450 µM | TGI (IGROV1 ovarian): > 450 µM | GI50 (SN12C renal): 16 µM | TGI (SN12C renal): > 100 µM and 393 µM and 97.6 µM
